From US5340806A, “Composition containing organogermanium compound and immunity adjusting agent comprising the composition” (Sanwa Kagaku Kenkyusho Co., Ltd., priority 1984, dated 1994)
Like-named read-outs stand apart in the source and are kept apart here.

Columns and labels:
[1] = test system: NZB/W F1 mouse lymphocytes; experiment: Antibody production in culture system of NZB/W F1 mouse lymphocytes; type: cell-based, NZB/W F1 male mice; settings: 1 to 2 μg/ml; FIG. 10a
[2] = set-up: species or system human; settings: in vivo
Method: A capsule containing various amount of effective organogermanium compound were dosed to each of healthy adult persons to check kinetics of the drug. […] The excretion ratio of the drug in urine was 30-50% in cases of any dose.
Therefore, it has been judged that the influence of the hepatitis on pharmakinetics of the drug is small.

[3] = test system: spleen cells (PFC), SRBC sensitized mice; experiment: Antibody production ability in normal mouse (spleen cell PFC); type: in vivo, ICR mice; settings: 0.1, 1.0 and 10 mg/kg oral
Method: To each group of ICR mice (age, 5 weeks), 2×10^8 and 2 ×10^7 of sheep red blood corpuscles (SRBC), as an […], were venously injected for sensitization in a tail vein of the mice. Then, immediately, the organogermanium compound dissolved in 4% cattle serum albumin solution was orally dosed to the sensitized mice in an amount of 0.1, 1.0 and 10 mg/kg, respectively. After 4 days from the sensitization, spleen cells were extracted to measure the number of PFC therein, which was used as an index of the antibody productivity.

chronic B hepatitis [4] = type: in vivo, human patients
Method: Search on utility or effectiveness of the organogermanium compound on patients who are infected with chronic B hepatitis, or with non A non B hepatitis, and show "positive" to HBe antigen as well as a preferable amount of dose thereof.
The amount of dose has been set as follows, by taking the results given in In Vivo Utilization Example 1 into consideration.
(a) 30 mg/day/body showing most preferable data in effectiveness, and
(b) 15 mg/day/body (half amount).
Experimental period of time was set for 12 weeks.
(a) Examination of liver functions (GOT, GPT, total bilirubin, LDH, y-GTP, and y-globulin), and
(b) Examination with use of HBV marker (HBe-Ag).

BALB/C mouse lymphocytes = experiment: Antibody production in culture system of BALB/C mouse lymphocytes; type: cell-based, BALB/C male mice
chronic B hepatitis [5] = type: in vivo, human patients; remark: listed apart in the source
Method: (§1) Search on effectiveness of the organogermanium compound to chronic B and non A non B hepatitises and preferable amount of dose thereof.
Therefore, 30 mg, 60 mg and 90 mg/day/body were set. Experimental period of time was set for 12 weeks.
(a) Examination of liver functions (GOT, GPT, A 1-P, and γ-GTP), and
(b) Examination with use of HBV markers (HBe-Ag, HBe-Ab and DNA-P).

chronic B hepatitis [6] = experiment: Long term dosing in chronic B hepatitis (In Vivo Utilization Example 4); set-up: species or system human patients; settings: for Liver tissue improvement: Ballooning of cell: 4 patients; for Liver tissue improvement: Bridging necrosis: 9 patients; for Liver tissue improvement: Fatty degeneration: 11 patients; for Liver tissue improvement: Moderation of lobule: 15 patients; for Glisson's capsule improvement: Piecemeal necrosis: 17 patients; for Glisson's capsule improvement: Fibrosis: 23 patients; for Glisson's capsule improvement: Round cell infiltration / Liver tissue improvement: Cobwebby necrosis / Liver tissue improvement: Degenerative necrosis in cell / Liver tissue improvement: Mobilization image of Kupfer cell: 24 patients
Method: A capsule containing the organogermanium compound was dosed to patients infected with chronic B hepatitis over a long period of time at a rate of 30 mg/day/body as the effective compound to check safety and effectiveness.
(a) Number of patients for analysis: 34 persons.
(b) Mean dosing period of time: 55 weeks.
(c) Number of patients who continuously dose over 48 weeks: 26 persons.

[7] = test system: positive Arthus reaction in guinea pigs; experiment: Positive Arthus reaction in guinea pig; type: in vivo, Hartley male guinea pigs; settings: 30 days, FIG. 11
Method: To 2% egg albumin solution, the same amount of Freund's complete adjuvant was added to prepare an emulsion. The emulsion was injected in 4 times by one time/week to Hartley male guinea pigs at a heel, under the skin and in the femoralis muscle, for sensitization. After 10 days from the final sensitization, 0.1 ml of 1% egg albumin solution was injected under the skin of the back to measure the area of resulting edema. The organogermanium compound was orally dosed for 30 days from the first sensitization in an amount of 0.1, 1.0 and 10 mg/kg/day.

[8] = test system: chronic non A non B hepatitis; experiment: Chronic non A non B hepatitis, 30/60/90 mg/day, 12 weeks (Table 4B); type: in vivo, human patients
Method: as §1
Therefore, 30 mg, 60 mg and 90 mg/day/body were set. Experimental period of time was set for 12 weeks. […]

3-oxygermylpropionic acid [Compound No. 1]
antibody production ability [1]: an inhibition in antibody production ability
excretion ratio of the drug in urine ([2]; human, po): 30-50%
time to maximum plasma concentration ([2]; human, po): 3 h
AUC versus dose [2]: AUC increases as the amount of dose increases
AUC, Cmax and excretion ratio in urine, hepatitis patients versus healthy persons [2]: tended to increase
plasma concentration on first day versus 7th day [2]: same level
tendency to accumulate [2]: does not show a tendency to accumulate
spleen cell PFC ([3]; SRBC 2×10^7, FIG. 8b): increase it
spleen cell PFC ([3]; SRBC 2×10^8, FIG. 8a): tendancy to decrease spleen cell PFC
Effectiveness (slight or more) (chronic B hepatitis [4]; 15 mg/day): 38%
General judgement: Improvement (slight or more) (chronic B hepatitis [4]; 15 mg/day): 36%
Effectiveness (slight or more) (chronic B hepatitis [4]; 30 mg/day): 60%
General judgement: Improvement (slight or more) (chronic B hepatitis [4]; 30 mg/day): 62%
GOT change (chronic B hepatitis [4]; 30 mg/day, 12 weeks): .dwnarw. ***
GPT change (chronic B hepatitis [4]; 30 mg/day, 12 weeks): .dwnarw. ***
HBe-Ag (log conversion) change (chronic B hepatitis [4]; 30 mg/day, 12 weeks): .dwnarw. +
LDH change (chronic B hepatitis [4]; 30 mg/day, 12 weeks): .dwnarw. *
antibody producing function (BALB/C mouse lymphocytes; 10 μg/ml, FIG. 10b): an acceleration of the function
antibody producing function (BALB/C mouse lymphocytes; 1 to 2 μg/ml): no change
Effectiveness (slight or more) (chronic B hepatitis [5]; 30 mg/day): 55%
General judgement: Improvement (slight or more) (chronic B hepatitis [5]; 30 mg/day): 52%
HBV markers: Improvement (slight or more) (chronic B hepatitis [5]; 30 mg/day): 36%
A 1-P change (chronic B hepatitis [5]; 30 mg/day, 12 weeks): .dwnarw. *
DNA-P change (chronic B hepatitis [5]; 30 mg/day, 12 weeks): .dwnarw. +
GOT change (chronic B hepatitis [5]; 30 mg/day, 12 weeks): .dwnarw. *
GPT change (chronic B hepatitis [5]; 30 mg/day, 12 weeks): .dwnarw. +
HBe-Ab change (chronic B hepatitis [5]; 30 mg/day, 12 weeks): .uparw. *
HBe-Ag (log conversion) change (chronic B hepatitis [5]; 30 mg/day, 12 weeks): .dwnarw. **
γ-GTP change (chronic B hepatitis [5]; 30 mg/day, 12 weeks): .dwnarw. *
Effectiveness (slight or more) (chronic B hepatitis [5]; 60 mg/day): 47%
General judgement: Improvement (slight or more) (chronic B hepatitis [5]; 60 mg/day): 37%
HBV markers: Improvement (slight or more) (chronic B hepatitis [5]; 60 mg/day): 27%
HBe-Ab change (chronic B hepatitis [5]; 60 mg/day, 12 weeks): .uparw. +
Effectiveness (slight or more) (chronic B hepatitis [5]; 90 mg/day): 47%
General judgement: Improvement (slight or more) (chronic B hepatitis [5]; 90 mg/day): 43%
HBV markers: Improvement (slight or more) (chronic B hepatitis [5]; 90 mg/day): 15%
HBe-Ab change (chronic B hepatitis [5]; 90 mg/day, 12 weeks): .uparw. **
ratio of improvement in functions of liver (at least slight), judgement of doctor in charge (chronic B hepatitis [6]; 30 mg/day/body, mean 55 weeks): 63%
ratio of improvement in functions of liver (at least slight), secondary judgement of committee (chronic B hepatitis [6]; 30 mg/day/body, mean 55 weeks): 59%
patients changed to SC (seroconversion) (chronic B hepatitis [6]; among 23 HBe antigen positive): 3 patients
patients changed to SN (seronegative) (chronic B hepatitis [6]; among 23 HBe antigen positive): 3 patients
ratio of disappearance of HBe antigen (chronic B hepatitis [6]; among 23 HBe antigen positive): 26%
Liver tissue improvement: Evaluation (chronic B hepatitis [6]; ≥middle, 3/24): 12.5%
Liver tissue improvement: Ballooning of cell (chronic B hepatitis [6]; ≥middle): 0%
Liver tissue improvement: Bridging necrosis (chronic B hepatitis [6]; ≥middle): 22.2%
Liver tissue improvement: Fatty degeneration (chronic B hepatitis [6]; ≥middle): 0%
Liver tissue improvement: Moderation of lobule (chronic B hepatitis [6]; ≥middle): 0%
Glisson's capsule improvement: Piecemeal necrosis (chronic B hepatitis [6]; ≥middle): 17.6%
Glisson's capsule improvement: Fibrosis (chronic B hepatitis [6]; ≥middle): 8.7%
Glisson's capsule improvement: Round cell infiltration (chronic B hepatitis [6]; ≥middle): 0%
Liver tissue improvement: Cobwebby necrosis (chronic B hepatitis [6]; ≥middle): 16.7%
Liver tissue improvement: Degenerative necrosis in cell (chronic B hepatitis [6]; ≥middle): 16.7%
Liver tissue improvement: Mobilization image of Kupfer cell (chronic B hepatitis [6]; ≥middle): 16.7%
Liver tissue improvement: Ballooning of cell (chronic B hepatitis [6]; ≥slight): 50.0%
Liver tissue improvement: Bridging necrosis (chronic B hepatitis [6]; ≥slight): 33.3%
Liver tissue improvement: Evaluation (chronic B hepatitis [6]; ≥slight, 10/24): 41.7%
Liver tissue improvement: Fatty degeneration (chronic B hepatitis [6]; ≥slight): 9.1%
Liver tissue improvement: Moderation of lobule (chronic B hepatitis [6]; ≥slight): 6.7%
Glisson's capsule improvement: Piecemeal necrosis (chronic B hepatitis [6]; ≥slight): 29.4%
Glisson's capsule improvement: Fibrosis (chronic B hepatitis [6]; ≥slight): 17.4%
Glisson's capsule improvement: Round cell infiltration (chronic B hepatitis [6]; ≥slight): 12.5%
Liver tissue improvement: Cobwebby necrosis (chronic B hepatitis [6]; ≥slight): 37.5%
Liver tissue improvement: Degenerative necrosis in cell (chronic B hepatitis [6]; ≥slight): 37.5%
Liver tissue improvement: Mobilization image of Kupfer cell (chronic B hepatitis [6]; ≥slight): 41.7%
inhibition of phlegmasia (edema area) ([7]; 0.1 mg/kg/day oral): a recognizable inhibition of the phlegmasia
inhibition of phlegmasia (edema area) ([7]; 1 mg/kg/day oral): a recognizable inhibition of the phlegmasia
Effectiveness (slight or more) ([8]; 30 mg/day): 31%
General judgement: Improvement (slight or more) ([8]; 30 mg/day): 29%
Safety (quite) ([8]; 30 mg/day): 92%
Side effect ([8]; 30 mg/day): 8.3%
Effectiveness (slight or more) ([8]; 60 mg/day): 44%
General judgement: Improvement (slight or more) ([8]; 60 mg/day): 45%
Safety (quite) ([8]; 60 mg/day): 91%
Side effect ([8]; 60 mg/day): 8.8%
A 1-P change ([8]; 60 mg/day, 12 weeks): .dwnarw. **
GOT change ([8]; 60 mg/day, 12 weeks): .dwnarw. **
GPT change ([8]; 60 mg/day, 12 weeks): .dwnarw. *
Effectiveness (slight or more) ([8]; 90 mg/day): 38%
General judgement: Improvement (slight or more) ([8]; 90 mg/day): 41%
Safety (quite) ([8]; 90 mg/day): 90%
Side effect ([8]; 90 mg/day): 10.0%
